“And” between values parts separate entries of the source, which are not always exact repeats. Equal values may be shown once. Read-outs that look alike come from different tables or passages of the source.
What was measured:
AChE = conditions: cited from earlier work; for i2 for thioflavin T with A-site ligand: ternary complex with thioflavin T
[1] = target: free AChE (E), recombinant human AChE (Homo sapiens, UniProt P22303); conditions: cited from earlier work
recombinant human AChE = recombinant human AChE (Homo sapiens, UniProt P22303); type: biochemical; conditions: for k12 + k21: 15.6 μM thioflavin T; for k122: two-component fit, minor component E2
carbamoylated AChE (EC) = carbamoylated AChE (EC) (Homo sapiens, UniProt P22303); test: Carbachol binding to carbamoylated AChE
[2] = maximum parameter range fit, i fixed at 1e-6
[3] = maximum parameter range fit, iKs fixed at 12 mM
[4] = maximum parameter range fit, iEC fixed at 1e-6
[5] = maximum parameter range fit, iECKECS fixed at 8 mM

Chain of recombinant human AChE (P22303 32-614): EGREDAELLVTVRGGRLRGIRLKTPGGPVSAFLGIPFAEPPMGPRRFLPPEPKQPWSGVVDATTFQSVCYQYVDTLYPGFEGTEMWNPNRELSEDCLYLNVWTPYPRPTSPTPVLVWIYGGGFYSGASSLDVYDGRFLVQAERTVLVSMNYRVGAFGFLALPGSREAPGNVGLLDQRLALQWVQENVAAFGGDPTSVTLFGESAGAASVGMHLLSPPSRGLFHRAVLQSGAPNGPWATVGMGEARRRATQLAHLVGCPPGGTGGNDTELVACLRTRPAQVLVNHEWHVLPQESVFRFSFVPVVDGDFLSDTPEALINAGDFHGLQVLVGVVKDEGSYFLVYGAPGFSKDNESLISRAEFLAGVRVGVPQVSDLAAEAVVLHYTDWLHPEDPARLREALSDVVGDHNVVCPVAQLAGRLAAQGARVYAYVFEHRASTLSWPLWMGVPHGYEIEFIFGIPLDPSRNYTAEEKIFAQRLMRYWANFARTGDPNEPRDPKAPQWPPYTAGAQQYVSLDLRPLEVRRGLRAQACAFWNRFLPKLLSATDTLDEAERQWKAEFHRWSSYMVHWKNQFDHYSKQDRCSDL
Chain of free AChE (E), recombinant human AChE (P22303 32-614): as above
Chain of carbamoylated AChE (EC) (P22303 32-574 limits assumed): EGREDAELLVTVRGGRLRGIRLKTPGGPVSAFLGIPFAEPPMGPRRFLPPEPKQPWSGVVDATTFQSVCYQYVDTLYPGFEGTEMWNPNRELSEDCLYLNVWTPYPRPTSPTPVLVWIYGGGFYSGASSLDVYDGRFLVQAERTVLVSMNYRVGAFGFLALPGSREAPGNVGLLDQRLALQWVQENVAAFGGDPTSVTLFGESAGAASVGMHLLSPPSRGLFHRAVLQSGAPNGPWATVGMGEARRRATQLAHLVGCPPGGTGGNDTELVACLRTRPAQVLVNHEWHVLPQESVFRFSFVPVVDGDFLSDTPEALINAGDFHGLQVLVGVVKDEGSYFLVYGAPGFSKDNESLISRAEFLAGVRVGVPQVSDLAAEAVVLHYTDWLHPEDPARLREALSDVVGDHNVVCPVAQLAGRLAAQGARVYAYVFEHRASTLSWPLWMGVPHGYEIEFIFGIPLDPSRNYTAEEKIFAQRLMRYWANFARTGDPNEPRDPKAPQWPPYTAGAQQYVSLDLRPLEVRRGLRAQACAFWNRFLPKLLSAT

Q: For `CC(=O)Nc1cccc([N+](C)(C)C)c1` [ATMA, 3-(acetamido)-N,N,N-trimethylanilinium], which “i2 for propidium with A-site ligand” value (AChE; ternary complex with propidium) is on record?
A: 9.5

Q: And the “i2 for thioflavin T with A-site ligand” value (AChE)?
A: 3.1

Q: With `C[N+](C)(C)CCOC(N)=O` [carbachol, carbamoylcholine chloride] as the compound, how does the i [1] read?
A: 0.92

Q: And the fEL/fESL [1, 2]?
A: 1.50

Q: What about the i2 [1, 2] of the same compound?
A: 1.08

Q: And the fEL/fESL [1, 3]?
A: 1.50

Q: And the i [1, 3]?
A: 1.59

Q: What about the i2 [1, 3] of the same compound?
A: 0.42

Q: And the fEL/fESL ([1]; one-site fit, (iKS)^−1 fixed at 0)?
A: 1.85

Q: What about the Kd ([1]; read-out: iKs, P-site in E, i2 fixed at 0.90) of the same compound?
A: 26000 ± 4000 µM

Q: And the “k12 + k21” value (recombinant human AChE; 1.67 mM carbachol, one-component fit (eq 6))?
A: 5.94 ± 0.02 min⁻¹

Q: What about the “k12 + k21” value (recombinant human AChE; 1.67 mM carbachol, two-component fit (eq A2)) of the same compound?
A: 6.53 ± 0.02 min⁻¹

Q: And the k122 (recombinant human AChE; 1.67 mM carbachol)?
A: 0.68 ± 0.04

Q: What about the “k12 + k21” value (recombinant human AChE; 60 mM carbachol, one-component fit (eq 6)) of the same compound?
A: 23.8 ± 0.3 min⁻¹

Q: What about the “k12 + k21” value (recombinant human AChE; 60 mM carbachol, two-component fit (eq A2)) of the same compound?
A: 27.0 ± 0.4 min⁻¹

Q: What about the k122 (recombinant human AChE; 60 mM carbachol) of the same compound?
A: 4.3 ± 0.3

Q: And the iEC (carbamoylated AChE (EC))?
A: 1.23

Q: And the Kd (carbamoylated AChE (EC); KECM+S, combined binding to A- and P-sites in EC, iEC2 fixed at 0.90)?
A: 1700 ± 400 µM

Q: And the Kd (carbamoylated AChE (EC); KECM+S, maximum parameter range fit, iEC fixed at 1e-6)?
A: 1660 µM

Q: What about the Kd (carbamoylated AChE (EC); KECM+S, maximum parameter range fit, iECKECS fixed at 8 mM) of the same compound?
A: 1660 µM

Q: What about the Kd (carbamoylated AChE (EC); KECM, A-site in EC, iEC2 fixed at 0.90) of the same compound?
A: 1800 ± 500 µM

Q: What about the Kd (carbamoylated AChE (EC); KECM, maximum parameter range fit, iEC fixed at 1e-6) of the same compound?
A: 1660 µM

Q: What about the fECSL/fESL (carbamoylated AChE (EC); for the three sets in Tables 1 and 2) of the same compound?
A: 1.14 ± 0.03

Q: What about the “increase of fluorescence of bound thioflavin T when carbachol bound to the A-site in ternary complex with EC” value (carbamoylated AChE (EC); from fECL/fECSL) of the same compound?
A: about 20%

Q: What about the fECL/fECSL (carbamoylated AChE (EC); iEC2 fixed at 0.90) of the same compound?
A: 0.83 and 0.83 ± 0.01

Q: What about the Kd (carbamoylated AChE (EC); iECKECS, P-site in EC, iEC2 fixed at 0.90) of the same compound?
A: 32000 ± 2000 µM

Q: What about the Kd (carbamoylated AChE (EC); iECKECS, maximum parameter range fit, iEC fixed at 1e-6) of the same compound?
A: 34000 µM

Q: And the fECL/fECSL (carbamoylated AChE (EC); [4])?
A: 0.83

Q: And the iEC2 (carbamoylated AChE (EC); [4])?
A: 0.96

Q: What about the fECL/fECSL (carbamoylated AChE (EC); [5]) of the same compound?
A: 0.83

Q: What about the iEC (carbamoylated AChE (EC); [5]) of the same compound?
A: 3.5

Q: And the iEC2 (carbamoylated AChE (EC); [5])?
A: 0.21

Q: Which “i2 for thioflavin T with A-site ligand” value (AChE) does the source give for `CC[N+](C)(C)c1cccc(O)c1` [edrophonium] here?
A: 1.12
